# Species on record: Rattus norvegicus
# Experiment: DrugMatrix - Regimen: Daily Repeat
# Format: toxicity, organism-based, Sprague-Dawley
# Set-up: regimen Daily Repeat, gender Male, age 6-8 weeks
# Details: in vivo, iv, […], vehicle 100 % SALINE; for ALANINE AMINOTRANSFERASE / ALBUMIN / ALKALINE PHOSPHATASE / ASPARTATE AMINOTRANSFERASE / BLOOD UREA NITROGEN / CARBON DIOXIDE / CHLORIDE / CHOLESTEROL / CREATINE PHOSPHOKINASE / CREATININE / GLUCOSE / LACTATE DEHYDROGENASE / LIPASE / PHOSPHORUS / POTASSIUM / SODIUM / TOTAL BILIRUBIN / TOTAL PROTEIN / URIC ACID: tissue Plasma; for ABSOLUTE BASOPHIL / ABSOLUTE EOSINOPHIL / ABSOLUTE LYMPHOCYTE / ABSOLUTE MONOCYTE / ABSOLUTE SEGMENTED NEUTROPHIL / BASOPHIL / EOSINOPHIL / ERYTHROCYTE COUNT / HEMATOCRIT / HEMOGLOBIN / LEUKOCYTE COUNT / LYMPHOCYTE / MEAN CORPUSCULAR HEMOGLOBIN / MEAN CORPUSCULAR HEMOGLOBIN CONCENTRATION / MEAN CORPUSCULAR VOLUME / MONOCYTE / NEUTROPHIL / NUCLEATED RED BLOOD CELLS / PLATELET COUNT: tissue Blood
# [1] = 72 h, dose 0.24 mg/Kg, dose level Low, time 3 day
# [2] = 72 h, dose 2.5 mg/Kg, dose level High, time 3 day
# [3] = 120 h, dose 0.24 mg/Kg, dose level Low, time 5 day
# [4] = 120 h, dose 2.5 mg/Kg, dose level High, time 5 day
smiles,measurement,setting,value
CC[C@@]1(O)C(=O)OCc2c1cc1n(c2=O)Cc2cc3ccccc3nc2-1 [CAMPTOTHECIN],ALANINE AMINOTRANSFERASE,[1],60 u/L
same,ALBUMIN,[1],4.3 G/DL
same,ALKALINE PHOSPHATASE,[1],408 u/L
same,ASPARTATE AMINOTRANSFERASE,[1],104.67 u/L
same,BLOOD UREA NITROGEN,[1],12.67 mg/dL
same,CARBON DIOXIDE,[1],33.33 mmol/L
same,CHLORIDE,[1],101.33 MEQ/L
same,CHOLESTEROL,[1],75 mg/dL
same,CREATINE PHOSPHOKINASE,[1],727.67 u/L
same,CREATININE,[1],0.15 mg/dL
same,GLUCOSE,[1],138.33 mg/dL
same,LACTATE DEHYDROGENASE,[1],388 u/L
same,LIPASE,[1],11 u/L
same,PHOSPHORUS,[1],11.93 mg/dL
same,POTASSIUM,[1],6.3 MEQ/L
same,SODIUM,[1],145.33 MEQ/L
same,TOTAL BILIRUBIN,[1],0.17 mg/dL
same,TOTAL PROTEIN,[1],5.93 G/DL
same,URIC ACID,[1],1.33 mg/dL
same,ALANINE AMINOTRANSFERASE,[2],37.33 u/L
same,ALBUMIN,[2],4.2 G/DL
same,ALKALINE PHOSPHATASE,[2],430.33 u/L
same,ASPARTATE AMINOTRANSFERASE,[2],79.33 u/L
same,BLOOD UREA NITROGEN,[2],13 mg/dL
same,CARBON DIOXIDE,[2],33 mmol/L
same,CHLORIDE,[2],101.33 MEQ/L
same,CHOLESTEROL,[2],73.67 mg/dL
same,CREATINE PHOSPHOKINASE,[2],318.33 u/L
same,CREATININE,[2],0.16 mg/dL
same,GLUCOSE,[2],153.33 mg/dL
same,LACTATE DEHYDROGENASE,[2],136.33 u/L
same,LIPASE,[2],10.33 u/L
same,PHOSPHORUS,[2],10.83 mg/dL
same,POTASSIUM,[2],5.76 MEQ/L
same,SODIUM,[2],142.73 MEQ/L
same,TOTAL BILIRUBIN,[2],0.17 mg/dL
same,TOTAL PROTEIN,[2],6.1 G/DL
same,URIC ACID,[2],1.63 mg/dL
same,ABSOLUTE BASOPHIL,[3],0 CELLS/uL
same,ABSOLUTE EOSINOPHIL,[3],45.33 CELLS/uL
same,ABSOLUTE LYMPHOCYTE,[3],11856.67 CELLS/uL
same,ABSOLUTE MONOCYTE,[3],131.67 CELLS/uL
same,ABSOLUTE SEGMENTED NEUTROPHIL,[3],1233 CELLS/uL
same,BASOPHIL,[3],0%
same,EOSINOPHIL,[3],0.33%
same,ERYTHROCYTE COUNT,[3],5.71 x10E6/uL
same,HEMATOCRIT,[3],35.9%
same,HEMOGLOBIN,[3],14.03 G/DL
same,LEUKOCYTE COUNT,[3],13.27 x10E3/uL
same,LYMPHOCYTE,[3],89.33%
same,MEAN CORPUSCULAR HEMOGLOBIN,[3],24.57 pg
same,MEAN CORPUSCULAR HEMOGLOBIN CONCENTRATION,[3],39.07 G/DL
same,MEAN CORPUSCULAR VOLUME,[3],62.87 fL
same,MONOCYTE,[3],1%
same,NEUTROPHIL,[3],9.33%
same,NUCLEATED RED BLOOD CELLS,[3],0 /100WBC
same,PLATELET COUNT,[3],1215 x10E3/uL
same,ABSOLUTE BASOPHIL,[4],0 CELLS/uL
same,ABSOLUTE EOSINOPHIL,[4],0 CELLS/uL
same,ABSOLUTE LYMPHOCYTE,[4],7405.33 CELLS/uL
same,ABSOLUTE MONOCYTE,[4],102.67 CELLS/uL
same,ABSOLUTE SEGMENTED NEUTROPHIL,[4],225.33 CELLS/uL
same,BASOPHIL,[4],0%
same,EOSINOPHIL,[4],0%
same,ERYTHROCYTE COUNT,[4],5.35 x10E6/uL
same,HEMATOCRIT,[4],31.67%
same,HEMOGLOBIN,[4],12.13 G/DL
same,LEUKOCYTE COUNT,[4],7.73 x10E3/uL
same,LYMPHOCYTE,[4],95.67%
same,MEAN CORPUSCULAR HEMOGLOBIN,[4],22.77 pg
same,MEAN CORPUSCULAR HEMOGLOBIN CONCENTRATION,[4],38.33 G/DL
same,MEAN CORPUSCULAR VOLUME,[4],59.3 fL
same,MONOCYTE,[4],1.33%
same,NEUTROPHIL,[4],3%
same,NUCLEATED RED BLOOD CELLS,[4],0 /100WBC
same,PLATELET COUNT,[4],1318.33 x10E3/uL
same,ALANINE AMINOTRANSFERASE,[3],43.33 u/L
same,ALBUMIN,[3],4.03 G/DL
same,ALKALINE PHOSPHATASE,[3],352 u/L
same,ASPARTATE AMINOTRANSFERASE,[3],70 u/L
same,BLOOD UREA NITROGEN,[3],14.67 mg/dL
same,CARBON DIOXIDE,[3],29.33 mmol/L
same,CHLORIDE,[3],102 MEQ/L
same,CHOLESTEROL,[3],64.33 mg/dL
same,CREATINE PHOSPHOKINASE,[3],241.67 u/L
same,CREATININE,[3],0.18 mg/dL
same,GLUCOSE,[3],201.67 mg/dL
same,LACTATE DEHYDROGENASE,[3],147.33 u/L
same,LIPASE,[3],10.33 u/L
same,PHOSPHORUS,[3],11.03 mg/dL
same,POTASSIUM,[3],5.31 MEQ/L
same,SODIUM,[3],141.3 MEQ/L
same,TOTAL BILIRUBIN,[3],0.2 mg/dL
same,TOTAL PROTEIN,[3],5.93 G/DL
same,URIC ACID,[3],1.33 mg/dL
same,ALANINE AMINOTRANSFERASE,[4],42.67 u/L
same,ALBUMIN,[4],4.03 G/DL
same,ALKALINE PHOSPHATASE,[4],247 u/L
same,ASPARTATE AMINOTRANSFERASE,[4],101 u/L
same,BLOOD UREA NITROGEN,[4],17 mg/dL
same,CARBON DIOXIDE,[4],22.33 mmol/L
same,CHLORIDE,[4],103.33 MEQ/L
same,CHOLESTEROL,[4],56 mg/dL
same,CREATINE PHOSPHOKINASE,[4],674.67 u/L
same,CREATININE,[4],0.2 mg/dL
same,GLUCOSE,[4],184 mg/dL
same,LACTATE DEHYDROGENASE,[4],581 u/L
same,LIPASE,[4],10.33 u/L
same,PHOSPHORUS,[4],12.4 mg/dL
same,POTASSIUM,[4],6.08 MEQ/L
same,SODIUM,[4],142.1 MEQ/L
same,TOTAL BILIRUBIN,[4],0.13 mg/dL
same,TOTAL PROTEIN,[4],6.03 G/DL
same,URIC ACID,[4],1.8 mg/dL

# — ChEMBL document CHEMBL3885881, “DrugMatrix”
